Literature values as cited in US7970581B2, “Methods of calculating differences of binding affinities between congeneric pairs of ligands by way of a displaced solvent functional” (The Trustees of Columbia University in the City of New York, priority 2007, dated 2011).

Biological target: factor Xa (Homo sapiens, UniProt P00742)
Conditions: experimental binding free energy of crystal structure ligand

Chain of factor Xa (P00742 235-488 limits assumed): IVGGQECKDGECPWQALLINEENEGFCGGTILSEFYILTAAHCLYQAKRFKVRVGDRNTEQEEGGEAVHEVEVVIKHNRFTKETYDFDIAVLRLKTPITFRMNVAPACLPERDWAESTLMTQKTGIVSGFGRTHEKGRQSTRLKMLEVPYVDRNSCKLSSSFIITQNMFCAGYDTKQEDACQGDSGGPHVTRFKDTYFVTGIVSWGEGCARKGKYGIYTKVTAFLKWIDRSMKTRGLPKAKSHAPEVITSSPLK
Chain of factor Xa (P00742 41-179 partner limits assumed): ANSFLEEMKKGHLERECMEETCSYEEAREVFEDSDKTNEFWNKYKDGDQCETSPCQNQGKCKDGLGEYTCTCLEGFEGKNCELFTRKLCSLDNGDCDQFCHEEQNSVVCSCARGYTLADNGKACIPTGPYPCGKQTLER

ΔGexp [kcal/mol] | SMILES
-9.88 | CCOC(=O)CO/N=C(\c1ccccn1)C1(c2ccc3c(c2)nc(CNc2ccc(C(=N)N)cc2)n3C)CC1 [1G2L:T87]
-10.09 | Cc1nc2ccccc2n1Cc1ccc2c(c1)nc(CNc1ccc(C(=N)N)cc1)n2C [1G2M:R11]
-10.98 | Cc1cc(C)cc(CNC(=O)c2cc3c(C)cccc3n2Cc2cccc(C(=N)N)c2)c1 [1LQD:CMI]
-12.28 | CN1CCN(Cc2csc(C(=O)Nc3ccc(Cl)cc3C(=O)Nc3ccc(Cl)cc3)c2Cl)CC1 [1MQ5:XLC]
-12.12 | N=C(N)c1ccc(CN2CCN(S(=O)(=O)c3cc4ccc(Cl)cc4s3)CC2=O)cc1 [1NFY:RTR]
-11.63 | CC(C)N1CCC(NC(=O)c2cc3ccccc3n2-c2cc(-c3ccc(Cl)s3)on2)CC1 [2BOH:IIA]

The remaining lines, values behind:

SMILES | ΔGexp [kcal/mol]
COc1cc(Cl)cc(C(=O)Nc2ccc(Cl)cn2)c1NC(=O)c1scc(C/[N+](C)=C2\NCCO2)c1Cl [1MQ6:XLD] | -15.22
COc1ccc(C(=O)NCC2CCN(c3ccncc3)CC2)cc1OCCc1cc(Cl)cc(Cl)c1 [2BMG:I1H] | -10.57
COc1cccc(Cn2c(C(=O)NC3CCN(C(C)C)CC3)cc3ccccc32)c1 [2BQ7:IID] | -9.62
CC(C)N1CCC(NC(=O)c2cc3ccccc3n2CC(=O)Nc2ccc(Cl)cc2)CC1 [2BQW:IIE] | -11.63
